Values quoted from earlier work, collected in patent publication US20050221324A1, “Genotoxicity analysis” (priority 2002, published 2005).

System: AL cells
Conditions: producing mainly chromosomal mutations; non-genotoxic carcinogens

Substance: arsenic
- mutagenicity in AL cells: quite strong mutagens
